From PubChem BioAssay AID651979 (The Scripps Research Institute Molecular Screening Center, 2013)
Calls of active or inactive are those of the source. How the calls were made is not given here.

Legend:
Test in all cases: PubChem AID 651979
[1] = molecular target: Fatty acid synthase (Homo sapiens) (UniProt P49327); conditions: HEK293T SILAC ABPP, NHU5 probe, LC-MS/MS ratio; FASN; at 5 µM; active compounds read low
CTSA = conditions: HEK293T SILAC ABPP, NHU5 probe, LC-MS/MS ratio, at 5 µM, active compounds read low
PNPLA8 = conditions: HEK293T SILAC ABPP, NHU5 probe, LC-MS/MS ratio, at 5 µM, active compounds read low
[2] = molecular target: Acyl-protein thioesterase 2 (Homo sapiens) (UniProt O95372); conditions: HEK293T SILAC ABPP, NHU5 probe, LC-MS/MS ratio; LYPLA2; at 5 µM; active compounds read low
PREP = conditions: HEK293T SILAC ABPP, NHU5 probe, LC-MS/MS ratio, at 5 µM, active compounds read low
ABHD10 = conditions: HEK293T SILAC ABPP, NHU5 probe, LC-MS/MS ratio, at 5 µM, active compounds read low
PNPLA6 = conditions: HEK293T SILAC ABPP, NHU5 probe, LC-MS/MS ratio, at 5 µM, active compounds read low
LYPLAL1 = conditions: HEK293T SILAC ABPP, NHU5 probe, LC-MS/MS ratio, at 5 µM, active compounds read low
[3] = molecular target: Dipeptidyl peptidase 9 (Homo sapiens) (UniProt Q86TI2); conditions: HEK293T SILAC ABPP, NHU5 probe, LC-MS/MS ratio; DPP9; at 5 µM; active compounds read low
ABHD6 = conditions: HEK293T SILAC ABPP, NHU5 probe, LC-MS/MS ratio, at 5 µM, active compounds read low
ESD = conditions: HEK293T SILAC ABPP, NHU5 probe, LC-MS/MS ratio, at 5 µM, active compounds read low
[4] = molecular target: Protein phosphatase methylesterase 1 (Homo sapiens) (UniProt Q9Y570); conditions: HEK293T SILAC ABPP, NHU5 probe, LC-MS/MS ratio; PPME1; at 5 µM; active compounds read low
[5] = molecular target: Acylamino-acid-releasing enzyme (Homo sapiens) (UniProt P13798); conditions: HEK293T SILAC ABPP, NHU5 probe, LC-MS/MS ratio; APEH; at 5 µM; active compounds read low
TPP2 = conditions: HEK293T SILAC ABPP, NHU5 probe, LC-MS/MS ratio, at 5 µM, active compounds read low
PLA2G4A = conditions: HEK293T SILAC ABPP, NHU5 probe, LC-MS/MS ratio, at 5 µM, active compounds read low
DDHD1 = conditions: HEK293T SILAC ABPP, NHU5 probe, LC-MS/MS ratio, at 5 µM, active compounds read low
ABHD12 = conditions: HEK293T SILAC ABPP, NHU5 probe, LC-MS/MS ratio, at 5 µM, active compounds read low
[6] = molecular target: Acyl-protein thioesterase 1 (Homo sapiens) (UniProt O75608); conditions: HEK293T SILAC ABPP, NHU5 probe, LC-MS/MS ratio; LYPLA1; at 5 µM; active compounds read low
Acyl-protein thioesterase 1 (Homo sapiens), sequence (O75608 whole entry, looked up): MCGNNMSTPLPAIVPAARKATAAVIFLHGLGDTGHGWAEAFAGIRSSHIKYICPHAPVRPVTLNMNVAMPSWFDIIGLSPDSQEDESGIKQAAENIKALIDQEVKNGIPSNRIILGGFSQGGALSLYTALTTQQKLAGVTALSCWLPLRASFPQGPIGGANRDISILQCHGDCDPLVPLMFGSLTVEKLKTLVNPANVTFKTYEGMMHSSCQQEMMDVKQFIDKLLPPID

Dipeptidyl peptidase 9 (Homo sapiens), sequence (Q86TI2 whole entry, looked up): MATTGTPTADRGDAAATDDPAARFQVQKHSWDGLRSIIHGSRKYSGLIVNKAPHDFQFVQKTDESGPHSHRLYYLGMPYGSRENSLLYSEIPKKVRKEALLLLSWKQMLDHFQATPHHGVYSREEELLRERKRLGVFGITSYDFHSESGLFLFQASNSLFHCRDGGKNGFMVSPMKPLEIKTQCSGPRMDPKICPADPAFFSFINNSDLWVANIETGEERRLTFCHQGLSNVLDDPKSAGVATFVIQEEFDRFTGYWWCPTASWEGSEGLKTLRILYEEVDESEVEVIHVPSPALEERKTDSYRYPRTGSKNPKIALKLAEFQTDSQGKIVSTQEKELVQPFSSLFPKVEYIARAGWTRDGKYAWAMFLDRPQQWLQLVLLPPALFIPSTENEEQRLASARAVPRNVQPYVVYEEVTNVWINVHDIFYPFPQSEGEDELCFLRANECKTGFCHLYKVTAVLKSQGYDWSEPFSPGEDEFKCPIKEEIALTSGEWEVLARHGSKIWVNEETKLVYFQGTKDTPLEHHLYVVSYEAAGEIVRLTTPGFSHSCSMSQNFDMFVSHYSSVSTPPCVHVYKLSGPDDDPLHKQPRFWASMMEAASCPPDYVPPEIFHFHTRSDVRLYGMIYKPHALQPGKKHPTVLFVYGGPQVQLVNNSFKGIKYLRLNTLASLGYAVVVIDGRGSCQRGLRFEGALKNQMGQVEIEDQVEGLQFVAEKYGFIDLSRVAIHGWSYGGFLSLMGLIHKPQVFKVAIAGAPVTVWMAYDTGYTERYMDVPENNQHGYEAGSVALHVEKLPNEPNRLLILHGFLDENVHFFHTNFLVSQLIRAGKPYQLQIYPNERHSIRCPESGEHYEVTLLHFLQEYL
Protein phosphatase methylesterase 1 (Homo sapiens), sequence (Q9Y570 whole entry, looked up): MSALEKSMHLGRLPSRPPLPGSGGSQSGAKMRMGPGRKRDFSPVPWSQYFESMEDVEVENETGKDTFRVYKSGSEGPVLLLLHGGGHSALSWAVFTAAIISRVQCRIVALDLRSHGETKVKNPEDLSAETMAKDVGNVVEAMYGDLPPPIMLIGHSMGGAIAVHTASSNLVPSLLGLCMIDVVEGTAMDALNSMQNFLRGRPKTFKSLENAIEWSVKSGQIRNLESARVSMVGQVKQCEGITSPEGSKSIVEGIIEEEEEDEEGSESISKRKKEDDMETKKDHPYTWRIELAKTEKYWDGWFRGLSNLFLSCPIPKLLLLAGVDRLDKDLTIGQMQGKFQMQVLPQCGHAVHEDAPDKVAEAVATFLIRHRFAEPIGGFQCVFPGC
Fatty acid synthase (Homo sapiens), sequence (P49327 whole entry, looked up): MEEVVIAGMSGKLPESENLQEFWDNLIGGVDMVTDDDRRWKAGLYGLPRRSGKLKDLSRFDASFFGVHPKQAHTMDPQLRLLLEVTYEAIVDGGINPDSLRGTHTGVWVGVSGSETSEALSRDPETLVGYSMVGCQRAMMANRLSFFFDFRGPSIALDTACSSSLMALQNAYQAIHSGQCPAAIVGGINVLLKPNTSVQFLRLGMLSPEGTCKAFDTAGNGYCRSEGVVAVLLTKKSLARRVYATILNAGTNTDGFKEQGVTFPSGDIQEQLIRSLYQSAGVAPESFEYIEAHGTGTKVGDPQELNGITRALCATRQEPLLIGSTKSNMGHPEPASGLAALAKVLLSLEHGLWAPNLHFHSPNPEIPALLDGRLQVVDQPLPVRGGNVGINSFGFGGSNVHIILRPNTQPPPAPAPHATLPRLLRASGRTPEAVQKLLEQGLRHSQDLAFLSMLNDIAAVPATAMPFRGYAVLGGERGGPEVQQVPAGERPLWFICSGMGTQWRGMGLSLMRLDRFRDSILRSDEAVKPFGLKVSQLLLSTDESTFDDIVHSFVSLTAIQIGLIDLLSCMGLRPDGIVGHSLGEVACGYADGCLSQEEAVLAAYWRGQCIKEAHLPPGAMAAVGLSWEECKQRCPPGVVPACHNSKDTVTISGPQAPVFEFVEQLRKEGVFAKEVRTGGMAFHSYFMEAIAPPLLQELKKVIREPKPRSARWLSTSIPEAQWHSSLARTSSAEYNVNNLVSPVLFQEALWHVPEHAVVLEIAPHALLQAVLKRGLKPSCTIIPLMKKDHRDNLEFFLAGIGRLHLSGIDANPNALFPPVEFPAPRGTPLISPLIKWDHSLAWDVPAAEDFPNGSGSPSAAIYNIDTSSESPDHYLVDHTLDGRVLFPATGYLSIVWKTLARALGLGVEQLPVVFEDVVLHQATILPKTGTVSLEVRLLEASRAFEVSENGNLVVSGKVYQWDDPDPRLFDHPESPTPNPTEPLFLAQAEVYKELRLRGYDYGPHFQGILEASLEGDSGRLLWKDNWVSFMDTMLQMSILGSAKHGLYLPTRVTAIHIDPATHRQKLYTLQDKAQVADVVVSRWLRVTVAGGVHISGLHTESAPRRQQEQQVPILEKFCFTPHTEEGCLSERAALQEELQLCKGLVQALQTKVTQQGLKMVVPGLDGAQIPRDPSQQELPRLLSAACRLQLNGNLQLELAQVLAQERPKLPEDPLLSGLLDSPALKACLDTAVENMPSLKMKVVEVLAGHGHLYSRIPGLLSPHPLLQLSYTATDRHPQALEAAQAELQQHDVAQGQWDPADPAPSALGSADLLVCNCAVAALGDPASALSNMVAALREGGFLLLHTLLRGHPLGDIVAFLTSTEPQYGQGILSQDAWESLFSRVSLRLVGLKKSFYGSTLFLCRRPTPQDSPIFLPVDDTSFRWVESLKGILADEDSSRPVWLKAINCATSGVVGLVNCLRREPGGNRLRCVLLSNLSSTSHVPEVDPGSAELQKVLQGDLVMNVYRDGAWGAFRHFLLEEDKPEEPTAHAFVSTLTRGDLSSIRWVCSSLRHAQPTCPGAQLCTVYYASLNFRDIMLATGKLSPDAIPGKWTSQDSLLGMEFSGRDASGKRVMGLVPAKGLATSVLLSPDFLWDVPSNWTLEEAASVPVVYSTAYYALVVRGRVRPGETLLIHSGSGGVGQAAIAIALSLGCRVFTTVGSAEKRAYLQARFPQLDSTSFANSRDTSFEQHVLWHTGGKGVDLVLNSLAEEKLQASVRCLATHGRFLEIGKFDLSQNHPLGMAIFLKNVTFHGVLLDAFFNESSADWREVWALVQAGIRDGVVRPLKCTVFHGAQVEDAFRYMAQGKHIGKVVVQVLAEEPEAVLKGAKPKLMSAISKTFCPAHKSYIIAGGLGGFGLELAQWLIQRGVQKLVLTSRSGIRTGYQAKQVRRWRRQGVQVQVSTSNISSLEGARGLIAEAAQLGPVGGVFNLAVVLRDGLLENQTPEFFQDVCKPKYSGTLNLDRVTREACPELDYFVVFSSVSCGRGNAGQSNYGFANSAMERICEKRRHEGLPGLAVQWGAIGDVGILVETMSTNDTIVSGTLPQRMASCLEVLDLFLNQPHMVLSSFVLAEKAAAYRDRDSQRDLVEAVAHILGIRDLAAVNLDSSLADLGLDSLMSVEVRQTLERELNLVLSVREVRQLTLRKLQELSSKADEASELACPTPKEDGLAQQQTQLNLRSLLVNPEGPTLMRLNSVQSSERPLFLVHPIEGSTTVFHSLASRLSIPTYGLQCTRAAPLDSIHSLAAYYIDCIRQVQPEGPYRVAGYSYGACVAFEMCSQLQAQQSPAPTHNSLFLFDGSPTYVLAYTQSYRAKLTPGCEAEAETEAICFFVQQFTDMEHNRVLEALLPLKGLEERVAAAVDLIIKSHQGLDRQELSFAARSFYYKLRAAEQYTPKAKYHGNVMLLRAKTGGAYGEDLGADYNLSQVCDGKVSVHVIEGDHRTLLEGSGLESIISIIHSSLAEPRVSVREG
Acyl-protein thioesterase 2 (Homo sapiens), sequence (O95372 whole entry, looked up): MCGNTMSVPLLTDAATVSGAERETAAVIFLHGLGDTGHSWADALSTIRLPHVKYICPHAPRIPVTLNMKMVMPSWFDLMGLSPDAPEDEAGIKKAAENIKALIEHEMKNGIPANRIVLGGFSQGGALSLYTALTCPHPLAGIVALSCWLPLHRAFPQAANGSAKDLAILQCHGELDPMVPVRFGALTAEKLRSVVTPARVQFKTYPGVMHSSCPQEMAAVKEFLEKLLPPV
Acylamino-acid-releasing enzyme (Homo sapiens), sequence (P13798 whole entry, looked up): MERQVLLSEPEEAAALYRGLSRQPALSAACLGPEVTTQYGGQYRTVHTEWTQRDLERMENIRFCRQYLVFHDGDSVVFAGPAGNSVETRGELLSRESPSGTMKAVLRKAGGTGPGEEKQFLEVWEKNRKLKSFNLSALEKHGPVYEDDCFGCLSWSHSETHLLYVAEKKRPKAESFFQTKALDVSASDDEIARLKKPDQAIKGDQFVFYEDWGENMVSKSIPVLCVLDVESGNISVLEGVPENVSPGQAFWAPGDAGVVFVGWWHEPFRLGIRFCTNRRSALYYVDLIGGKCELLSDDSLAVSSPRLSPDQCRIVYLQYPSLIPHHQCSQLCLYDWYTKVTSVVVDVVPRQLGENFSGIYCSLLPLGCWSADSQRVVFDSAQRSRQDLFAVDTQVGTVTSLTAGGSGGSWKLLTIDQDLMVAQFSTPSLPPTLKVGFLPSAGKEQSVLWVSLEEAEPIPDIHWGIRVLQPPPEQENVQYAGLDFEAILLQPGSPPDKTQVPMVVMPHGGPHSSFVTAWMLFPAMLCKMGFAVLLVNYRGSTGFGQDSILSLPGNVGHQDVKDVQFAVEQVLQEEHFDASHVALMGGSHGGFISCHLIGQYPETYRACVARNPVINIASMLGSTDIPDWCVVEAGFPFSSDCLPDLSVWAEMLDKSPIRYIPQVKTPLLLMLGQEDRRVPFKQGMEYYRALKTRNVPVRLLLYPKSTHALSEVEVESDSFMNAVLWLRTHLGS

In the case of `O=C(CN1CCN(C(=O)c2ccco2)CC1)Nc1cc(C(F)(F)F)ccc1Cl`, the SILAC ratio (compound/DMSO) [1] is reported as 1.14 (inactive), the SILAC ratio (compound/DMSO) (CTSA) is reported as 1.17 (inactive) and the SILAC ratio (compound/DMSO) (PNPLA8) is reported as 0.97 (inactive). For the same compound, the SILAC ratio (compound/DMSO) [2] was 1.1 (inactive), the SILAC ratio (compound/DMSO) (PREP) was 1.1 (inactive) and the SILAC ratio (compound/DMSO) (ABHD10) was 1.1 (inactive). The SILAC ratio (compound/DMSO) (PNPLA6) was 1.2 (inactive), the SILAC ratio (compound/DMSO) (LYPLAL1) was 1.33 (inactive) and the SILAC ratio (compound/DMSO) [3] was 1.25 (inactive). The SILAC ratio (compound/DMSO) (ABHD6) was 1.25 (inactive), the SILAC ratio (compound/DMSO) (ESD) was 1.08 (inactive) and the SILAC ratio (compound/DMSO) [4] was 1.08 (inactive). The SILAC ratio (compound/DMSO) [5] was 1.22 (inactive), the SILAC ratio (compound/DMSO) (TPP2) was 1.1 (inactive) and the SILAC ratio (compound/DMSO) (PLA2G4A) was 1.43 (inactive). The SILAC ratio (compound/DMSO) (DDHD1) was 1.06 (inactive), the SILAC ratio (compound/DMSO) (ABHD12) was 1.43 (inactive) and the SILAC ratio (compound/DMSO) [6] was 0.21.
